#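 A five-concentration, 48-hour dose response in 96-well plates underlies each endpoint, interpolated linearly between surrounding concentrations. TGI denotes the concentration required for complete inhibition of growth.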
# Tests used:
# Assay in all cases: NCI tumour cell line growth inhibition, 48 h
# [1] = system: EKVX NSCLC
# [2] = system: HOP-92 NSCLC
# [3] = system: MOLT-4 leukemia
# [4] = system: SNB-75 CNS
# [5] = system: M19-MEL melanoma
# [6] = system: RPMI-8226 leukemia
# [7] = system: RXF 393 renal
# [8] = system: DLD-1 colon
# [9] = system: A549 NSCLC
# [10] = system: HCC-2998 colon
# [11] = system: SK-MEL-2 melanoma
# [12] = system: OVCAR-8 ovarian
# [13] = system: DMS 273 small cell lung
# [14] = system: SW-620 colon
# [15] = system: COLO 205 colon
# [16] = system: UACC-62 melanoma
# [17] = system: SK-MEL-28 melanoma
# [18] = system: U251 CNS
# [19] = system: OVCAR-3 ovarian
# [20] = system: SF-295 CNS
# [21] = system: KM12 colon
# [22] = system: IGROV1 ovarian
# [23] = system: TK-10 renal
# [24] = system: NCI-H226 lung
# [25] = system: 786-0 renal
# [26] = system: MALME-3M melanoma
# [27] = system: NCI-H23 lung
# [28] = system: KM20L2 colon
# [29] = system: RXF-631 renal
# [30] = system: A498 renal
# [31] = system: K-562 leukemia
# [32] = system: NCI-H460 lung
# [33] = system: HOP-18 NSCLC
# [34] = system: SF-268 CNS
# [35] = system: LOX IMVI melanoma
# [36] = system: UACC-257 melanoma
# [37] = system: HCT-15 colon
# [38] = system: XF 498 CNS
# [39] = system: SK-MEL-5 melanoma
# [40] = system: OVCAR-4 ovarian
# [41] = system: SNB-19 CNS
# [42] = system: SK-OV-3 ovarian
# [43] = system: LXFL 529 NSCLC
# [44] = system: HT29 colon
# [45] = system: SF-539 CNS
# [46] = system: M14 melanoma
# [47] = system: HL-60(TB) leukemia
# [48] = system: UO-31 renal
# [49] = system: CCRF-CEM leukemia
# [50] = system: OVCAR-5 ovarian
# [51] = system: CAKI-1 renal
# [52] = system: SN12C renal
# [53] = system: ACHN renal
# [54] = system: NCI-H522 lung
# [55] = system: HOP-62 NSCLC
# [56] = system: HCT-116 colon
# [57] = system: DMS 114 small cell lung
# [58] = system: SNB-78 CNS
# [59] = system: SR leukemia
structure (smiles),measurement,setting,value
O=C(O)CNS(=O)(=O)c1ccc(NC(=O)c2ccc([N+](=O)[O-])cc2)cc1,TGI,[1],> 100 µM
same,TGI,[2],> 100 µM
same,TGI,[3],> 100 µM
same,TGI,[4],> 100 µM
same,TGI,[5],> 100 µM
same,TGI,[6],> 100 µM
same,TGI,[7],> 100 µM
same,TGI,[8],> 100 µM
same,TGI,[9],> 100 µM
same,TGI,[10],> 100 µM
same,TGI,[11],> 100 µM
same,TGI,[12],> 100 µM
same,TGI,[13],> 100 µM
same,TGI,[14],> 100 µM
same,TGI,[15],> 100 µM
same,TGI,[16],> 100 µM
same,TGI,[17],> 100 µM
same,TGI,[18],> 100 µM
same,TGI,[19],> 100 µM
same,TGI,[20],> 100 µM
same,TGI,[21],> 100 µM
same,TGI,[22],> 100 µM
same,TGI,[23],> 100 µM
same,TGI,[24],> 100 µM
same,TGI,[25],> 100 µM
same,TGI,[26],> 100 µM
same,TGI,[27],> 100 µM
same,TGI,[28],> 100 µM
same,TGI,[29],> 100 µM
same,TGI,[30],> 100 µM
same,TGI,[31],> 100 µM
same,TGI,[32],> 100 µM
same,TGI,[33],> 100 µM
same,TGI,[34],> 100 µM
same,TGI,[35],> 100 µM
same,TGI,[36],> 100 µM
same,TGI,[37],> 100 µM
same,TGI,[38],> 100 µM
same,TGI,[39],> 100 µM
same,TGI,[40],> 100 µM
same,TGI,[41],> 100 µM
same,TGI,[42],> 100 µM
same,TGI,[43],> 100 µM
same,TGI,[44],> 100 µM
same,TGI,[45],> 100 µM
same,TGI,[46],> 100 µM
same,TGI,[47],> 100 µM
same,TGI,[48],> 100 µM
same,TGI,[49],> 100 µM
same,TGI,[50],> 100 µM
same,TGI,[51],> 100 µM
same,TGI,[52],> 100 µM
same,TGI,[53],> 100 µM
same,TGI,[54],> 100 µM
CCOC(=O)C(=O)Nc1ccccc1CC,TGI,[1],> 100 µM
same,TGI,[2],> 100 µM
same,TGI,[3],> 100 µM
same,TGI,[5],> 100 µM
same,TGI,[55],> 100 µM
same,TGI,[6],> 100 µM
same,TGI,[7],> 100 µM
same,TGI,[8],> 100 µM
same,TGI,[56],> 100 µM
same,TGI,[9],> 100 µM
same,TGI,[10],> 100 µM
same,TGI,[11],> 100 µM
same,TGI,[12],> 100 µM
same,TGI,[57],> 100 µM
same,TGI,[14],> 100 µM
same,TGI,[16],> 100 µM
same,TGI,[17],> 100 µM
same,TGI,[18],> 100 µM
same,TGI,[19],> 100 µM
same,TGI,[20],> 100 µM
same,TGI,[21],> 100 µM
same,TGI,[22],> 100 µM
same,TGI,[23],> 100 µM
same,TGI,[24],> 100 µM
same,TGI,[25],> 100 µM
same,TGI,[26],> 100 µM
same,TGI,[27],> 100 µM
same,TGI,[29],> 100 µM
same,TGI,[31],> 100 µM
same,TGI,[32],> 100 µM
same,TGI,[33],> 100 µM
same,TGI,[34],> 100 µM
same,TGI,[35],> 100 µM
same,TGI,[36],> 100 µM
same,TGI,[38],> 100 µM
same,TGI,[39],> 100 µM
same,TGI,[40],> 100 µM
same,TGI,[41],> 100 µM
same,TGI,[42],> 100 µM
same,TGI,[43],> 100 µM
same,TGI,[44],> 100 µM
same,TGI,[45],> 100 µM
same,TGI,[46],> 100 µM
same,TGI,[47],> 100 µM
same,TGI,[48],> 100 µM
same,TGI,[49],> 100 µM
same,TGI,[50],> 100 µM
same,TGI,[51],> 100 µM
same,TGI,[52],> 100 µM
same,TGI,[53],> 100 µM
same,TGI,[54],> 100 µM
O=C(c1cccc2ccccc12)N1CCC(C2CCN(C(=O)c3cccc4ccccc34)CC2)CC1,TGI,[1],> 100 µM
same,TGI,[2],> 100 µM
same,TGI,[3],> 100 µM
same,TGI,[4],65.7 µM
same,TGI,[5],> 100 µM
same,TGI,[55],> 100 µM
same,TGI,[6],> 100 µM
same,TGI,[7],> 100 µM
same,TGI,[8],> 100 µM
same,TGI,[56],> 100 µM
same,TGI,[9],> 100 µM
same,TGI,[11],> 100 µM
same,TGI,[12],> 100 µM
same,TGI,[57],> 100 µM
same,TGI,[13],> 100 µM
same,TGI,[14],> 100 µM
same,TGI,[15],> 100 µM
same,TGI,[16],> 100 µM
same,TGI,[17],> 100 µM
same,TGI,[18],> 100 µM
same,TGI,[19],> 100 µM
same,TGI,[20],> 100 µM
same,TGI,[21],> 100 µM
same,TGI,[22],> 100 µM
same,TGI,[23],> 100 µM
same,TGI,[24],> 100 µM
same,TGI,[25],> 100 µM
same,TGI,[26],> 100 µM
same,TGI,[27],> 100 µM
same,TGI,[28],> 100 µM
same,TGI,[29],> 100 µM
same,TGI,[30],> 100 µM
same,TGI,[31],> 100 µM
same,TGI,[32],> 100 µM
same,TGI,[33],> 100 µM
same,TGI,[34],> 100 µM
same,TGI,[58],> 100 µM
same,TGI,[35],> 100 µM
same,TGI,[36],> 100 µM
same,TGI,[37],> 100 µM
same,TGI,[38],> 100 µM
same,TGI,[39],> 100 µM
same,TGI,[59],> 100 µM
same,TGI,[42],> 100 µM
same,TGI,[43],> 100 µM
same,TGI,[44],> 100 µM
same,TGI,[45],> 100 µM
same,TGI,[46],> 100 µM
same,TGI,[47],> 100 µM
same,TGI,[48],> 100 µM
same,TGI,[49],> 100 µM
same,TGI,[50],> 100 µM
same,TGI,[51],> 100 µM
same,TGI,[52],> 100 µM
same,TGI,[53],> 100 µM
same,TGI,[54],> 100 µM
C=C(C)CCN[Si](c1ccccc1)(c1ccccc1)C(C)(C)C,TGI,[1],54.4 µM
same,TGI,[2],34.2 µM
same,TGI,[3],52.6 µM
same,TGI,[4],82.2 µM
same,TGI,[5],38 µM
same,TGI,[55],31.4 µM
same,TGI,[6],62.2 µM
same,TGI,[7],32.4 µM
same,TGI,[56],27.7 µM
same,TGI,[9],> 100 µM
same,TGI,[10],43.3 µM
same,TGI,[11],29.2 µM
same,TGI,[12],36 µM
same,TGI,[57],51.3 µM
same,TGI,[13],37.6 µM
same,TGI,[14],> 100 µM
same,TGI,[15],33.3 µM
same,TGI,[16],31.9 µM
same,TGI,[17],42.7 µM
same,TGI,[18],30 µM
same,TGI,[19],32 µM
same,TGI,[20],36.4 µM
same,TGI,[21],36.3 µM
same,TGI,[22],72 µM
same,TGI,[23],68.3 µM
same,TGI,[24],25.5 µM
same,TGI,[25],33.5 µM
same,TGI,[26],36.7 µM
same,TGI,[27],45.3 µM
same,TGI,[28],35.3 µM
same,TGI,[29],41.5 µM
same,TGI,[30],> 100 µM
same,TGI,[31],63.2 µM
same,TGI,[32],> 100 µM
same,TGI,[33],33.4 µM
same,TGI,[34],98 µM
same,TGI,[58],79 µM
same,TGI,[35],31.7 µM
same,TGI,[36],29.1 µM
same,TGI,[37],48.1 µM
same,TGI,[38],40.9 µM
same,TGI,[39],36.9 µM
same,TGI,[40],44.4 µM
same,TGI,[41],49.2 µM
same,TGI,[42],69 µM
same,TGI,[44],30.2 µM
same,TGI,[45],29.1 µM
same,TGI,[46],34.4 µM
same,TGI,[47],44.5 µM
same,TGI,[48],26.9 µM
same,TGI,[49],66.4 µM
same,TGI,[52],32.7 µM
same,TGI,[53],> 100 µM
same,TGI,[54],44.3 µM

# Reference: PubChem BioAssay (NCI)
